Test results published in ChEMBL document CHEMBL1201862, “PubChem BioAssay data set” (2004).
The source made the active and inactive calls.

Key:
[1] = A cytotoxicity screen of small molecule inhibitors of the PhoP region in Salmonella typhi identified in the primary screen. [Related pubchem assays: 1850, 1864, 1985 ]; format: functional
Nonstructural protein 1 = Nonstructural protein 1 (Influenza A virus, UniProt Q194T2); format: functional, Influenza A virus (A/California/07/2009(H1N1))
[2] = viability of uninfected HEp-2 cells – cell-based, HTS, cytotoxicity control for RSV inhibitor project, dose response (AID 2410); format: functional; settings: human respiratory syncytial virus
Estrogen receptor = molecular target: T1, Estrogen receptor (Homo sapiens, UniProt P03372);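 further: potency for inhibiting coactivator peptide recruitment to the receptor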
T1 sequence (P03372 whole entry): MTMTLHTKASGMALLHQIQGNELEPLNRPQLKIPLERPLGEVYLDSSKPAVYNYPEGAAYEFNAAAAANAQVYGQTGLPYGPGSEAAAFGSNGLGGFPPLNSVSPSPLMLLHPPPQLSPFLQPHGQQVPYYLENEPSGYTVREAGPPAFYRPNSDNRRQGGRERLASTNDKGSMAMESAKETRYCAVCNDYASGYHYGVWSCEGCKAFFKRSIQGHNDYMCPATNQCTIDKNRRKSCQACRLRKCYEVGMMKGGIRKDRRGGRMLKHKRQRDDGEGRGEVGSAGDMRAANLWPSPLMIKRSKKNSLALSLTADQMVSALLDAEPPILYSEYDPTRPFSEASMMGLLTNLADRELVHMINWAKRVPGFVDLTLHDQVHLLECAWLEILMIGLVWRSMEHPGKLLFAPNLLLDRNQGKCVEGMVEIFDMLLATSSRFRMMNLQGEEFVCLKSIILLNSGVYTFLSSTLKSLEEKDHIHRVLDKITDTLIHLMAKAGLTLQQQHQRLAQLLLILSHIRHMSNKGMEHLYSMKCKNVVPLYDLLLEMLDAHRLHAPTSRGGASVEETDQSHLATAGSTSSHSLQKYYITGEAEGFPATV

Leucine aminopeptidase = molecular target: T2, Leucine aminopeptidase (Plasmodium falciparum 3D7, UniProt Q8IL11); assay: P. falciparum M17LAP inhibitors, primary screen, biochemical, fluorogenic H-Leu-NHMec substrate, 1536-well (AID 1619); format: functional
T2 sequence (Q8IL11 whole entry): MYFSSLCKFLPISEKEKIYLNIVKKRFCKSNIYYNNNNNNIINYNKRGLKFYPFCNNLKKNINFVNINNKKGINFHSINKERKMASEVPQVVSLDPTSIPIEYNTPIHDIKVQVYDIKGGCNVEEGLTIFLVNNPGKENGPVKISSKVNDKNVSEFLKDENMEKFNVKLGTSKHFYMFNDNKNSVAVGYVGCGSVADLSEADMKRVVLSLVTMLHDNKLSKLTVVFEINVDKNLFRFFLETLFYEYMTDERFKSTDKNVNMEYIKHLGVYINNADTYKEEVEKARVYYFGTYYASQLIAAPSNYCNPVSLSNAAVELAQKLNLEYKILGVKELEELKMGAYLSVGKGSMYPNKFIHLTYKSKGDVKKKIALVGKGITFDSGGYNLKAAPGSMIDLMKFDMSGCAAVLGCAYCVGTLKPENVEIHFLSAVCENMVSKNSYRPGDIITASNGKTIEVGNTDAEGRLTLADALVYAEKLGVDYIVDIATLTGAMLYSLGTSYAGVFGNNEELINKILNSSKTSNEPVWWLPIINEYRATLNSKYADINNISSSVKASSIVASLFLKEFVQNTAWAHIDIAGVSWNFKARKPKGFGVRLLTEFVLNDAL

[3] = molecular target: T3, Short transient receptor potential channel 4 (Mus musculus, UniProt Q9QUQ5); assay: block of DAMGO-driven TRPC4 calcium entry – cell-based, HEK293 TRPC4/mu-opioid, Fluo-4 calcium, dose response (AID 434942); format: functional;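 further: potency of inhibitors blocking the TRPC4 calcium response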
T3 sequence (Q9QUQ5 whole entry): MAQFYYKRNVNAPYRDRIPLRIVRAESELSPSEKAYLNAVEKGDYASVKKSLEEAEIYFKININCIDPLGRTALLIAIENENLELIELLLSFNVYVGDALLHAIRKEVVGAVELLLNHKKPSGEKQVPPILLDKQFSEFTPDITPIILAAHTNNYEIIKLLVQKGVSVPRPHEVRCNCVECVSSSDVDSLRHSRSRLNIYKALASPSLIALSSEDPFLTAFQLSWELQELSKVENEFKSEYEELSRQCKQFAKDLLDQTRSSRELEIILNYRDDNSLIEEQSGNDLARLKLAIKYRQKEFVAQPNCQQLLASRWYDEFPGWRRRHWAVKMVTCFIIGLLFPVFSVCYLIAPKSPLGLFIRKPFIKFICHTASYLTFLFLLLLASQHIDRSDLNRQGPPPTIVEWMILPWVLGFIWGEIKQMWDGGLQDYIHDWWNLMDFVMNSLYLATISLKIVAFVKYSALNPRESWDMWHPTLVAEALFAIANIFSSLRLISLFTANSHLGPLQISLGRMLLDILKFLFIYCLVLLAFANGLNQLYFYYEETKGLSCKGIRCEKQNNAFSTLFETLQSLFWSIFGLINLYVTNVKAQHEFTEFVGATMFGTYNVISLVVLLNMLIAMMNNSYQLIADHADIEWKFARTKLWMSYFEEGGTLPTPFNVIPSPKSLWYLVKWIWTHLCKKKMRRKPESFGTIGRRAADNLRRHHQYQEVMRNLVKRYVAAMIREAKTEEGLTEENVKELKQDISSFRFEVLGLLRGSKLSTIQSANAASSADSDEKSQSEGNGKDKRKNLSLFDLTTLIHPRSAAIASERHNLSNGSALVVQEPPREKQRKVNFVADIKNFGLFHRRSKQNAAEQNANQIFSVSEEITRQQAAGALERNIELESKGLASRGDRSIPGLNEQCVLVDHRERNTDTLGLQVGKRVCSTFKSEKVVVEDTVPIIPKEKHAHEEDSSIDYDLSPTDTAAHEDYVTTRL

[4] = microbe, parasite or virus in culture; format: functional; settings: Mycobacterium tuberculosis
[5] = molecular target: T4, Sentrin-specific protease 6 (Homo sapiens, UniProt Q9GZR1); format: functional;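 further: Luminescence-based dose-response confirmatory assay of SENP6 inhibition, following up an ultra-high-throughput screen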
T4 sequence (Q9GZR1 whole entry): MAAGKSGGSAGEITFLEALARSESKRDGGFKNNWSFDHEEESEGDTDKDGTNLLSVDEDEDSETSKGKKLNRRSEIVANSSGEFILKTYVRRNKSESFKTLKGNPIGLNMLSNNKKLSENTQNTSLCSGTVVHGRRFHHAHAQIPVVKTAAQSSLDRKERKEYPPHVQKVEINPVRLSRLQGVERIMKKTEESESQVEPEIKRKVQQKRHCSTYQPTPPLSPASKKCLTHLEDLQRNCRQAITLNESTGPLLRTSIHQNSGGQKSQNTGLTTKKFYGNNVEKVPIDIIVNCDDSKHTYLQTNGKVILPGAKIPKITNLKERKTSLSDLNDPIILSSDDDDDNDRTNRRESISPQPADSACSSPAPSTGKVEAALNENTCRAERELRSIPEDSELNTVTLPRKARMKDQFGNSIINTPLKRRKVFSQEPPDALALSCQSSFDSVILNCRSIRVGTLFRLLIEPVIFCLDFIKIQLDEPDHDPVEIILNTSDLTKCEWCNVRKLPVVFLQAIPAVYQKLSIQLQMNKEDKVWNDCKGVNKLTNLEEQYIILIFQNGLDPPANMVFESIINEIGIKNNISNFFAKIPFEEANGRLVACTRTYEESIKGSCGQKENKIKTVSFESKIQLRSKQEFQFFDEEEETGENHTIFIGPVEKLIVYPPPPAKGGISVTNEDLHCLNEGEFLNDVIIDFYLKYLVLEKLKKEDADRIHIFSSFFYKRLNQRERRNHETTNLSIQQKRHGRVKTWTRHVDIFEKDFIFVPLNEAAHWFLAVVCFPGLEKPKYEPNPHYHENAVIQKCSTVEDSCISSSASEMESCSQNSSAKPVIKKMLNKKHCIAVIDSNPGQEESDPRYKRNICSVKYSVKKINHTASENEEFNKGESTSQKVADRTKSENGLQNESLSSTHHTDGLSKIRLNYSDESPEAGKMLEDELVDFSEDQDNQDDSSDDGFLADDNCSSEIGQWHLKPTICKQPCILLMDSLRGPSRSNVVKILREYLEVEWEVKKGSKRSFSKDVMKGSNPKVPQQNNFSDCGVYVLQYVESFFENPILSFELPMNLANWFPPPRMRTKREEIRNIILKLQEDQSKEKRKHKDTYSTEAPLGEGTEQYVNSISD

[6] = molecular target: T5, Sentrin-specific protease 8 (Homo sapiens, UniProt Q96LD8); format: functional;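 further: luminescence read-out of SENP8 inhibition, dose-response confirmation following an ultra-high-throughput screen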
T5 sequence (Q96LD8 whole entry): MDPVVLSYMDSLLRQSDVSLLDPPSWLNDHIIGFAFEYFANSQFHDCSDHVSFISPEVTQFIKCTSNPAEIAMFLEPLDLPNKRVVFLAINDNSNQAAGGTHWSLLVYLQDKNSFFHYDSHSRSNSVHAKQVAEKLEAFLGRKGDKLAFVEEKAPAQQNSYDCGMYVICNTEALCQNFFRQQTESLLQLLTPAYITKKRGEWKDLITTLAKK

Caspase-3 = molecular target: T6, Caspase-3 (Homo sapiens, UniProt P42574); format: functional;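 further: Dose-response selectivity test against caspase-3 for candidate inhibitors of sentrin-specific proteases (SENPs)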
T6 sequence (P42574 whole entry): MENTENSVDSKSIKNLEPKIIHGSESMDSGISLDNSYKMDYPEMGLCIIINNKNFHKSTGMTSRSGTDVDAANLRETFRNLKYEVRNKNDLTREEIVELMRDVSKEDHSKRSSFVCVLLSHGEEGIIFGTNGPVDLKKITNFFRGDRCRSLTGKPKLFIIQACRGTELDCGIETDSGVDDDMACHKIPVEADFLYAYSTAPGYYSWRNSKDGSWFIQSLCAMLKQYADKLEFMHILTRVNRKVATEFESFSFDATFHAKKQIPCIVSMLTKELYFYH

[7] = molecular target: T7, Sentrin-specific protease 7 (Homo sapiens, UniProt Q9BQF6); format: functional;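 further: Luminescence-based dose-response confirmation of ultra-high-throughput screening hits, measuring inhibition of SENP7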
T7 sequence (Q9BQF6 whole entry): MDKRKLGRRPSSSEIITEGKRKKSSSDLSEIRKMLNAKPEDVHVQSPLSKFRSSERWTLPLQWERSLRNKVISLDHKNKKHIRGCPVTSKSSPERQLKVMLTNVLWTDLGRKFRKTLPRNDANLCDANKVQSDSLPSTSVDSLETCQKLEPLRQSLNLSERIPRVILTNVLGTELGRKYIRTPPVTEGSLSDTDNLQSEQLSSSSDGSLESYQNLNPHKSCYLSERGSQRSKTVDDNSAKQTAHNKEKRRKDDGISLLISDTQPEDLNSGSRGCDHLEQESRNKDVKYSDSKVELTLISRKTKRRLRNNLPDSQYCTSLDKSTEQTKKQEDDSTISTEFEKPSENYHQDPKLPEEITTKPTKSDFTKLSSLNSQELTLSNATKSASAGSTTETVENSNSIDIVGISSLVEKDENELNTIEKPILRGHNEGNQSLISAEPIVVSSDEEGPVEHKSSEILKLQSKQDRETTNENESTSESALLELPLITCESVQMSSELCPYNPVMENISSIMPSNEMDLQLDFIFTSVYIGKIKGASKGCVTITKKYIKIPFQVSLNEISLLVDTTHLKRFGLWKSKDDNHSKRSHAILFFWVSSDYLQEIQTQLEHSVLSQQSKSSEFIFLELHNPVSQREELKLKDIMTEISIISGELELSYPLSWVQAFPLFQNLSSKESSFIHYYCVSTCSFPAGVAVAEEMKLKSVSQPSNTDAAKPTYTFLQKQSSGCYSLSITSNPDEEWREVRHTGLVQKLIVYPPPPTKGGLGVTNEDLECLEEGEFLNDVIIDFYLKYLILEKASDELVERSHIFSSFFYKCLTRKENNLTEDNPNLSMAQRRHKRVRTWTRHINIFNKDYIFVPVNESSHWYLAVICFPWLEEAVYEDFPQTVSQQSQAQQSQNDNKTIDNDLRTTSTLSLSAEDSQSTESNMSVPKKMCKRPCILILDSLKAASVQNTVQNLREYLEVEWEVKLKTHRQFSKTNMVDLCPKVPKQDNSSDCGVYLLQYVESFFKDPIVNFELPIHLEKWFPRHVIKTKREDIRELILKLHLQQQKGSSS

Chain of Nonstructural protein 1 (Q194T2 whole entry): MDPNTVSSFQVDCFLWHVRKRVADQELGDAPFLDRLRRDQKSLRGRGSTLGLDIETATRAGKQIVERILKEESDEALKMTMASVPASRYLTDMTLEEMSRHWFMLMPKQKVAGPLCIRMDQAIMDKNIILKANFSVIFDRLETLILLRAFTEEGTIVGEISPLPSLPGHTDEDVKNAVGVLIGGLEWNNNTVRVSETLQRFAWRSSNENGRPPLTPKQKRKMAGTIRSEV

N#Cc1nc(COc2ccc(Br)cc2)oc1NCCCn1ccnc1
EC50 [1]: > 50 µM (active)

Cc1cc(Cl)ccc1OCC(=O)N/N=C/c1ccncc1
EC50 [1]: > 50 µM (active)

O=C1NCCCC1C(=O)N/N=C/c1cc([N+](=O)[O-])ccc1O (stereo not given)
EC50 [1]: > 50 µM (active)
IC50 (Nonstructural protein 1): 16.8 µM (active)

Cc1ccccc1-n1c(C)nnc1SCc1cc(=O)oc2ccc3ccccc3c12
IC50 (cells): > 50 µM (active)
CC50 [2]: > 50 µM (active)

O=C(COC(=O)CCC(=O)c1cccs1)NCc1ccco1
IC50 (Estrogen receptor): 11.9 µM (active)

O=S(=O)(Nc1cccc2nsnc12)c1ccccc1
IC50 (Leucine aminopeptidase): 15.5 µM (active)

Cc1cc(C)nc(N=C(N)NC2CCCCC2)n1
EC50 [3]: 4.22 µM (active)

Cc1ccc(-c2nc3c(c(=O)c4ccccc4n3C)c(=O)n2Cc2ccco2)cc1
IC50 (cells): 5.74 µM (active)
CC50 [4]: 38.3 µM (active)

CN(C)C(=O)COC(=O)c1ccccc1Nc1ccc(SC(F)F)cc1
IC50 [5]: 12.8 µM (active)
IC50 (cells): 4.77 µM (active)
IC50 [6]: 17.8 µM (active)
IC50 (Caspase-3): 28.2 µM (active)
IC50 [7]: 4.9 µM (active)
CC50 [2]: 8.89 µM (active)

Cc1cc(SCC(=O)NC(=O)NCc2ccco2)nc2c(C)cccc12
IC50 (Estrogen receptor): 32 µM (not active)

O=C(NNC(=O)c1ccc(SCC2CCCO2)c([N+](=O)[O-])c1)c1ccc(Cl)c([N+](=O)[O-])c1 (stereo not given)
IC50 (Estrogen receptor): 23.3 µM (active)

CSC1=NC2(C)CCCCC2C12C=CC(=O)C=C2 (stereo not given)
EC50 [1]: > 50 µM (active)

O=C(CSc1nc[nH]n1)Nc1ncc(C(F)(F)F)cc1Cl
IC50 (Leucine aminopeptidase): 19.6 µM (active)

COc1ccc(Cn2nnnc2C(c2cc3ccc(OC)cc3nc2O)N2CCC(C)CC2)cc1 (stereo not given)
EC50 [1]: > 50 µM (active)

CC(C)(C)c1cc(NC(=O)c2cc(F)c(F)c(F)c2F)no1
IC50 (cells): 41.2 µM (active)

COC(=O)c1cc(NC(=O)C2CC=CCC2C(=O)O)cc(C(=O)OC)c1 (stereo not given)
IC50 (Leucine aminopeptidase): 28.6 µM (active)

O=C(O)Cn1cc(/C=C2/NC(=O)N(c3ccc(Cl)cc3)C2=O)c2ccccc21
IC50 (Leucine aminopeptidase): 11.9 µM (active)
